In general, EC50 refers to the concentration at which the effect is half-maximal.

“And” between values parts separate entries of the source, which are not always exact repeats. Equal values may be shown once. Read-outs that look alike come from different tables or passages of the source. Some results are limits rather than exact numbers.

This is an account of results in patent US20220313698A1, “MODULATORS OF CYSTIC FIBROSIS TRANSMEMBRANE CONDUCTANCE REGULATOR” (Vertex Pharmaceuticals Incorporated, priority 2019, published 2022).

For data set [1] the following is noted: snar bond.
Data set [2] has as its target T1, CFTR-mediated chloride transport (Homo sapiens, UniProt P13569). As to the kind of experiment: Corrector Assay A - membrane potential dye assay (enteroid cells). As to conditions: for Corrector Assay A % activity: % of chloride transport of triple combination control (1 μM (14S)-dispiro macrocycle + 3 μM tezacaftor + 300 nM ivacaftor); for EC50: read-out: Corrector Assay A EC50, human intestinal enteroid cells, 18-24 h incubation, acute 10 μM forskolin + 300 nM ivacaftor.

Data set [3] addresses T1, CFTR-mediated chloride transport. As to the kind of experiment: Corrector Assay B - membrane potential dye assay (enteroid cells).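 Note: methyl oxonol membrane potential fluorescence followed over 15 min after switching to chloride-free buffer with forskolin, 100 µM IBMX and ivacaftor, in presence of CaCC blockers.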 As to conditions: % of chloride transport of triple combination control (3 μM Compound A + 3 μM tezacaftor + 300 nM ivacaftor).
Procedure: Base medium (ADF+++) consisted of Advanced DMEM/Ham's F12, 2 mM Glutamax, 10 mM HEPES, 1 μg/ml penicillin/streptomycin.
Intestinal enteroid maintenance medium (IEMM) consisted of ADF+++, 1×B27 supplement, 1×N2 supplement, 1.25 mM N-acetyl cysteine, 10 mM Nicotinamide, 50 ng/mL hEGF, 10 nM Gastrin, 1 μg/mL hR-spondin-1, 100 ng/mL hNoggin, TGF-b type 1 inhibitor A-83-01, 100 μg/mL Primocin, 10 μM P38 MAPK inhibitor SB202190.
Bath 1 Buffer consisted of 1 mM MgCl2, 160 mM NaCl, 4.5 mM KCl, 10 mM HEPES, 10 mM Glucose, 2 mM CaCl2).
Chloride Free Buffer consisted of 1 mM Magnesium Gluconate, 2 mM Calcium Gluconate, 4.5 mM Potassium Gluconate, 160 mM Sodium Gluconate, 10 mM HEPES, 10 mM Glucose.
Bath 1 Dye Solution consisted of Bath 1 Buffer, 0.04% Pluronic F127, 20 μM Methyl Oxonol, 30 μM CaCCinh-A01, 30 μM Chicago Sky Blue.
Chloride Free Dye Solution consisted of Chloride Free Buffer, 0.04% Pluronic F127, 20 μM Methyl Oxonol, 30 μM CaCCinh-A01, 30 μM Chicago Sky Blue.
Chloride Free Dye Stimulation Solution consisted of Chloride Free Dye Solution, 10 μM forskolin, 100 μM IBMX, and 300 nM Ivacaftor.
Cells were recovered in cell recovery solution, collected by centrifugation at 650 rpm for 5 min at 4° C., resuspended in TryPLE and incubated for 5 min at 37° C. Cells were then collected by centrifugation at 650 rpm for 5 min at 4° C. and resuspended in IEMM containing 10 μM ROCK inhibitor (RI). The cell suspension was passed through a 40 μm cell strainer and resuspended at 1×10^6 cells/mL in IEMM containing 10 μM RI. Cells were seeded at 5000 cells/well into multi-well plates and incubated for overnight at 37° C., 95% humidity and 5% CO2 prior to assay.
Briefly, cells were washed 5 times in Bath 1 Buffer. Bath 1 Dye Solution was added and the cells were incubated for 25 min at room temperature. Following dye incubation, cells were washed 3 times in Chloride Free Dye Solution. Chloride transport was initiated by addition of Chloride Free Dye Stimulation Solution and the fluorescence signal was read for 15 min. The CFTR-mediated chloride transport for each condition was determined from the AUC of the fluorescence response to acute forskolin and 300 nM N-[2,4-bis(1,1-dimethylethyl)-5-hydroxyphenyl]-1,4-dihydro-4-oxoquinoline-3-carboxamide stimulation. Chloride transport was then expressed as a percentage of the chloride transport following treatment with 3 μM Compound A, 3 μM (R)-1-(2,2-difluorobenzo[d][1,3]dioxol-5-yl)-N-(1-(2,3-dihydroxypropyl)-6-fluoro-2-(1-hydroxy-2-methylpropan-2-yl)-1H-indol-5-yl)cyclopropanecarboxamide and 300 nM acute N-[2,4-bis(1,1-dimethylethyl)-5-hydroxyphenyl]-1,4-dihydro-4-oxoquinoline-3-carboxamide triple combination control (% Activity).
[4] abbreviates: from CC1(C)C[C@H](CCC(Nc2cccc(S(=O)(=O)NC(=O)c3ccc(C(C)(C)C)nc3F)n2)c2cccc(Br)n2)CN1, 15-membered ring, K2CO3, NMP, 21.9 mM, 165.0 °C, 16.0 h.

In data set [1] (the molecule shown is the open-chain precursor, 14-membered ring, K2CO3, NMP, 74.5 mM, 140.0 °C, 2 steps), `CC(C)(C)OC(=O)N1C[C@@H](CCC(c2ccccc2)n2ccc(S(=O)(=O)NC(=O)c3ccc(C(C)(C)C)nc3Cl)n2)CC1(C)C` (stereo partly shown) displayed a ring closure, yield after HPLC of 13%.
With `CC(C)(C)c1ccc2c(n1)N1CC(CC1(C)C)OCCNc1cccc(n1)S(=O)(=O)NC2=O` (stereo not shown), the ring closure, yield after HPLC in data set [1] (from CC(C)(C)OC(=O)N1CC(OCCNc2cccc(S(=O)(=O)NC(=O)c3ccc(C(C)(C)C)nc3F)n2)CC1(C)C, 15-membered ring, K2CO3, NMP, 73.3 mM, 160.0 °C, 2 steps) is 61%.
Compound `CC(C)(C)c1ccc2c(n1)N1CC(CCCOc3cccc(c3)S(=O)(=O)NC2=O)CC1(C)C` (stereo not shown) yielded a ring closure, yield after HPLC in data set [1] (from CC1(C)CC(CCCOc2cccc(S(=O)(=O)NC(=O)c3ccc(C(C)(C)C)nc3F)c2)CN1, 15-membered ring, K2CO3, NMP, 27.5 mM, 150.0 °C, 16.0 h) of 41%.
Consider `CC(C)(C)c1ccc2c(n1)N1CC(CCN(c3ccccc3)C(=O)c3cccc(c3)S(=O)(=O)NC2=O)CC1(C)C` (stereo not shown), for which the ring closure, yield after HPLC in data set [1] (from CC1(C)CC(CCN(C(=O)c2cccc(S(=O)(=O)NC(=O)c3ccc(C(C)(C)C)nc3Cl)c2)c2ccccc2)CN1, 15-membered ring, K2CO3, then CsF/3A MS, NMP, 24.6 mM, 180.0 °C, 88.0 h) is 29%.
The compound `CC(C)(C)c1ccc2c(n1)N1C[C@@H](CCC(C3=CCN(C(=O)OCc4ccccc4)CC3)Nc3cccc(n3)S(=O)(=O)NC2=O)CC1(C)C` (stereo partly shown) had a ring closure, yield after HPLC in data set [1] (from CC1(C)C[C@H](CCC(Nc2cccc(S(=O)(=O)NC(=O)c3ccc(C(C)(C)C)nc3F)n2)C2=CCN(C(=O)OCc3ccccc3)CC2)CN1, 15-membered ring, K2CO3/3A MS, NMP, 29.7 mM, 155.0 °C, 18.0 h, 2 steps) of 89%.
The compound `CC(C)(C)c1ccc2c(n1)N1C[C@@H](CCC(C3CCN(C(=O)OCc4ccccc4)CC3)Nc3cccc(n3)S(=O)(=O)NC2=O)CC1(C)C` (stereo partly shown) came in with a ring closure, yield after HPLC in data set [1] (from CC1(C)C[C@H](CCC(Nc2cccc(S(=O)(=O)NC(=O)c3ccc(C(C)(C)C)nc3F)n2)C2CCN(C(=O)OCc3ccccc3)CC2)CN1, 15-membered ring, K2CO3, NMP, 42.0 mM, 140.0 °C, 16.0 h) of 58%.
Turning to `CC(C)(C)c1ccc2c(n1)N1C[C@@H](CCC(CCC(C3CC3)C3CC3)Nc3cccc(n3)S(=O)(=O)NC2=O)CC1(C)C` (stereo partly shown), in data set [1] (from CC(C)(C)OC(=O)N1C[C@@H](CCC(CCC(C2CC2)C2CC2)Nc2cccc(S(=O)(=O)NC(=O)c3ccc(C(C)(C)C)nc3F)n2)CC1(C)C, 15-membered ring, K2CO3, DMSO, 77.1 mM, 140.0 °C, 2 steps), the ring closure, yield after HPLC came to 46%.
Turning to `CC(C)(C)c1ccc2c(n1)N1C[C@@H](CCC(c3cc(Cl)ccn3)Nc3cccc(n3)S(=O)(=O)NC2=O)CC1(C)C` (stereo partly shown), the ring closure, yield after HPLC in data set [1] (from CC(C)(C)OC(=O)N1C[C@@H](CCC(Nc2cccc(S(=O)(=O)NC(=O)c3ccc(C(C)(C)C)nc3F)n2)c2cc(Cl)ccn2)CC1(C)C, 15-membered ring, K2CO3, NMP, 142.0 mM, 140.0 °C, 2 steps) turned out to be 43%.
As for `CC(C)(C)c1ccc2c(n1)N1C[C@@H](CCC(c3ccc(C(=O)O)cc3)Nc3cccc(n3)S(=O)(=O)NC2=O)CC1(C)C` (stereo partly shown), the ring closure, yield after HPLC in data set [1] (from CC1(C)C[C@H](CCC(Nc2cccc(S(=O)(=O)NC(=O)c3ccc(C(C)(C)C)nc3Cl)n2)c2ccc(C(=O)O)cc2)CN1, 15-membered ring, K2CO3, NMP, 26.5 mM, 165.0 °C, 48.0 h) turned out to be 24%.
With `CC(C)COc1cc(F)cc(-c2ccc3c(n2)N2C[C@@H](CCC(c4ccccn4)Nc4cccc(n4)S(=O)(=O)NC3=O)CC2(C)C)c1` (stereo partly shown), in data set [1] (from CC(C)COc1cc(F)cc(-c2ccc(C(=O)NS(=O)(=O)c3cccc(NC(CC[C@@H]4CN(C(=O)OC(C)(C)C)C(C)(C)C4)c4ccccn4)n3)c(Cl)n2)c1, 15-membered ring, K2CO3, NMP, 38.2 mM, 140.0 °C, 2 steps), the ring closure, yield after HPLC was 18% and 31%.
Turning to `CC1(C)CC2CC(c3ccccc3)CNc3cccc(n3)S(=O)(=O)NC(=O)c3ccc(-n4ccc(OCCC5(C(F)(F)F)CC5)n4)nc3N1C2` (stereo not shown), the ring closure, yield after HPLC in data set [1] (from CC(C)(C)OC(=O)N1CC(CC(CNc2cccc(S(=O)(=O)NC(=O)c3ccc(-n4ccc(OCCC5(C(F)(F)F)CC5)n4)nc3Cl)n2)c2ccccc2)CC1(C)C, 15-membered ring, K2CO3/4A MS, DMSO, 44.7 mM, 140.0 °C, 2 steps) was determined as 60%.
`CC1(C)CC2CN1c1nc(-n3ccc(OCCC4(C(F)(F)F)CC4)n3)ccc1C(=O)NS(=O)(=O)c1cccc(n1)NCCC2c1ccccc1` (stereo not shown): the ring closure, yield after HPLC in data set [1] (from CC1(C)CC(C(CCNc2cccc(S(=O)(=O)NC(=O)c3ccc(-n4ccc(OCCC5(C(F)(F)F)CC5)n4)nc3Cl)n2)c2ccccc2)CN1, 15-membered ring, K2CO3/3A MS, DMSO, 38.4 mM, 155.0 °C, 16.0 h, 2 steps) was determined as 50%.
In the case of `CC1(C)C[C@@H]2CCC(c3ccc(C(=O)O)cc3)Nc3cccc(n3)S(=O)(=O)NC(=O)c3ccc(-n4ccc(OCCC5(C(F)(F)F)CC5)n4)nc3N1C2` (stereo partly shown), the ring closure, yield after HPLC in data set [1] (from CC1(C)C[C@H](CCC(Nc2cccc(S(=O)(=O)NC(=O)c3ccc(-n4ccc(OCCC5(C(F)(F)F)CC5)n4)nc3Cl)n2)c2ccc(C(=O)O)cc2)CN1, 15-membered ring, K2CO3, NMP, 19.4 mM, 150.0 °C, 18.0 h) came to 40%.
In turn, `CC1(C)C[C@@H]2CCCNc3cccc(n3)S(=O)(=O)NC(=O)c3cc(Cc4ccccc4)c(F)nc3N1C2` registered a ring closure, yield after HPLC in data set [1] (from CC1(C)C[C@H](CCCNc2cccc(S(=O)(=O)NC(=O)c3cc(Cc4ccccc4)c(F)nc3F)n2)CN1, 15-membered ring, K2CO3, NMP, 71.8 mM, 160.0 °C, 21.5 h, 2 steps) of 33%.
For `CCCC1(C)CC2CCCNc3cccc(n3)S(=O)(=O)NC(=O)c3ccc(-n4ccc(OCCC5(C(F)(F)F)CC5)n4)nc3N1C2` (stereo not shown), the ring closure, yield after HPLC in data set [1] (from CCCC1(C)CC(CCCNc2cccc(S(=O)(=O)NC(=O)c3ccc(-n4ccc(OCCC5(C(F)(F)F)CC5)n4)nc3Cl)n2)CN1, 15-membered ring, K2CO3, NMP, 20.9 mM, 150.0 °C, 16.0 h) was determined as 28%.
Compound `CC(C)(C)c1ccc2c(n1)N1C[C@@H](CC[C@@H](c3cccc(Br)n3)Nc3cccc(n3)S(=O)(=O)NC2=O)CC1(C)C` (single isomer, unassigned) [Compound 214] gave a ring closure, yield after HPLC in data set [1] (setting [4]) of 45%. Moreover, in data set [2], the “Corrector Assay A % activity” value was “++ (++ is 30-60%)” and the EC50 was less than 1000 nM.
Compound `CC(C)(C)c1ccc2c(n1)N1C[C@@H](CC[C@H](c3cccc(Br)n3)Nc3cccc(n3)S(=O)(=O)NC2=O)CC1(C)C` (single isomer, unassigned) [Compound 215] came in with a ring closure, yield after HPLC in data set [1] (setting [4]) of 46%. In addition, in data set [2], the “Corrector Assay A % activity” value is recorded as “+++ (+++ is >60%)” and the concentration giving a half-maximal response (EC50) is less than 1000 nM.
For `CC1(C)CC2CC(c3ccccc3)CNc3cccc(n3)S(=O)(=O)NC(=O)c3ccc(-n4ccc(OCCC5(C(F)(F)F)CC5)n4)nc3N1C2` (single isomer, unassigned) [Compound 391, 12,12-dimethyl-16-phenyl-8-(3-{2-[1-(trifluoromethyl)cyclopropyl]ethoxy}-1H-pyrazol-1-yl)-2λ^6-thia-3,9,11,18,23-pentaazatetracyclo[17.3.1.111,14.05,10]tetracosa-1(22),5,7,9,19(23),20-hexaene-2,2,4-trione], in data set [2], the “Corrector Assay A % activity” value was “+++ (+++ is >60%)” and the 50% effective concentration (EC50) is less than 1000 nM. Further, the “Corrector Assay B % activity” value in data set [3] is listed as “+++ (+++ is >60%)”.
As for `CC1(C)CC2CN1c1nc(-n3ccc(OCCC4(C(F)(F)F)CC4)n3)ccc1C(=O)NS(=O)(=O)c1cccc(n1)NCCC2c1ccccc1` (single isomer, unassigned) [Compound 393, 12,12-dimethyl-15-phenyl-8-(3-{2-[1-(trifluoromethyl)cyclopropyl]ethoxy}-1H-pyrazol-1-yl)-2λ^6-thia-3,9,11,18,23-pentaazatetracyclo[17.3.1.111,14.05,10]tetracosa-1(22),5,7,9,19(23),20-hexaene-2,2,4-trione], in data set [2], the “Corrector Assay A % activity” value was “+++ (+++ is >60%)” and the EC50 is less than 1000 nM. Besides, the “Corrector Assay B % activity” value in data set [3] is listed as “+++ (+++ is >60%)”.
In data set [1] (from CC1(C)C[C@H](CCC(Nc2cccc(S(=O)(=O)NC(=O)c3ccc(C(C)(C)C)nc3F)n2)c2ccc(Cl)cn2)CN1, 15-membered ring, K2CO3/3A MS, NMP, 78.4 mM, 150.0 °C, 4.0 h, 2 steps), `CC(C)(C)c1ccc2c(n1)N1C[C@@H](CCC(c3ccc(Cl)cn3)Nc3cccc(n3)S(=O)(=O)NC2=O)CC1(C)C` (single isomer, unassigned; diastereomer 1) had a ring closure, yield after HPLC of 39%.
`CC(C)C1CC[C@@H]2CN(c3nc(-n4ccc(OCCC5C6(CC6)C56CC6)n4)ccc3C(=O)NS(=O)(=O)c3cccc(n3)N1)C(C)(C)C2` (single isomer, unassigned; diastereomer 1): in data set [1] (from CC(C)C(CC[C@H]1CNC(C)(C)C1)Nc1cccc(S(=O)(=O)NC(=O)c2ccc(-n3ccc(OCCC4C5(CC5)C45CC5)n3)nc2Cl)n1, 15-membered ring, K2CO3, NMP, 20.9 mM, 165.0 °C, 16.0 h), the ring closure, yield after HPLC is 68%.
Take `CC(C)(C)c1ccc2c(n1)N1C[C@@H](CCC(c3ccc(Cl)cn3)Nc3cccc(n3)S(=O)(=O)NC2=O)CC1(C)C` (single isomer, unassigned; diastereomer 2): in data set [1] (from CC1(C)C[C@H](CCC(Nc2cccc(S(=O)(=O)NC(=O)c3ccc(C(C)(C)C)nc3F)n2)c2ccc(Cl)cn2)CN1, 15-membered ring, K2CO3/3A MS, NMP, 55.9 mM, 150.0 °C, 4.0 h, 2 steps), the ring closure, yield after HPLC was found to be 34%.
In the case of `CC(C)C1CC[C@@H]2CN(c3nc(-n4ccc(OCCC5C6(CC6)C56CC6)n4)ccc3C(=O)NS(=O)(=O)c3cccc(n3)N1)C(C)(C)C2` (single isomer, unassigned; diastereomer 2), the ring closure, yield after HPLC in data set [1] (from CC(C)C(CC[C@H]1CNC(C)(C)C1)Nc1cccc(S(=O)(=O)NC(=O)c2ccc(-n3ccc(OCCC4C5(CC5)C45CC5)n3)nc2Cl)n1, 15-membered ring, K2CO3, NMP, 23.0 mM, 165.0 °C, 16.0 h) is 60%.
